Assay results: US20100144755A1 (Glaxo Group Limited, priority 2006, published 2010)
Where a name gives a salt, the structure may show the parent alone. Read-outs that look alike come from different tables or passages of the source.

Columns and labels:
[1] = test system: TNF-stimulated IL8 production by human neutrophils; experiment: TNF-stimulated IL-8 production from human neutrophils; type: cell-based; conditions: Neutrophil, TNF 100 ng/ml, about 20 hrs, bounds reflect the top concentration screened, for 202(c) and 120 a range over multiple runs with ends given as 'greater than';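 also: IL-8 in cell-free supernatant quantified by sandwich ELISA, inhibition calculated against a compound-free control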
Procedure: TNF-Stimulated IL-8 Production from Human Neutrophils
The effect of test compounds on TNF-stimulated IL8 production by human neutrophils is measured as follows. Neutrophils are prepared from blood obtained from consenting donors, using standard methods. Blood is collected in heparinized syringes and layered over histopaque (30 ml/20 ml). Following centrifugation, the red cell pellet is resuspended in PBS and purified over a dextran gradient. […] Cells are added (0.5-1 ml) to 48 well plates already containing compound at 1000× final concentration in neat DMSO or 10% DMSO in RPMI1640 with 10% FBS. TNF (final concentration 100 ng/ml) is used as the stimulus. Cells incubated for approximately 20 hrs at 37° C., 5% CO2. Levels of IL-8 in the cell free supernatant are determined by sandwich ELISA, and inhibition relative to a control with DMPO but no compound is calculated.

Recombinant human p38α = biological target: T1, Recombinant human p38α (Homo sapiens, UniProt Q16539); experiment: Time-resolved fluorescence resonance energy transfer (TR-FRET) kinase assay (standard and low volume); type: biochemical
T1 construct: His; made in house
Procedure: Time-Resolved Fluorescence Resonance Energy Transfer Linase Standard Assay
(§1) Recombinant human p38α was expressed as a His-tagged protein. To activate this protein, 3 μM unactivated p38α was incubated in 200 mM Hepes pH 7.4, 625 mM NaCl, 1 mM DTT with 27 nM active MKK6 (Upstate), 1 mM ATP and 10 mM MgCl2 The activity of the MKK6-activated p38α was assessed using a time-resolved fluorescence resonance energy transfer (TR-FRET) assay.
Biotinylated-GST-ATF2 (residues 19-96, 400 nM final), ATP ([…]) and MgCl2 (5 mM final) in assay buffer (40 mM HEPES pH 7.4, 1 mM DTT) were added to wells containing 1 ul of various concentrations of compound or DMSO vehicle (3% final) in NUNC 384 well black plate. The reaction was initiated by the addition of MKK6-activated p38 (100 pM final) to give a total volume of 30 ul. The reaction was incubated for 120 minutes at room temperature, then terminated by the addition of 15 μl of 100 mM EDTA pH 7.4. Detection reagent (15 μl) in buffer (100 mM HEPES pH 7.4, 150 mM NaCl, 0.1% w/v BSA, 1 mM DTT) containing antiphosphothreonine-ATF2-71 polyclonal antibody (Cell Signalling Technology, Beverly Mass., USA) labelled with W-1024 europium chelate (Wallac O Y, Turku, Finland), and APC-labelled streptavidin (Prozyme, San Leandro, Calif., USA) was added and the reaction was further incubated for 60 minutes at room temperature. The degree of phosphorylation of GST-ATF2 was measured using a Packard Discovery plate reader (Perkin-Elmer Life Sciences, Pangbourne, UK) as a ratio of specific 665 nm energy transfer signal to reference europium 620 nm signal.
Time-Resolved Fluorescence Resonance Energy Transfer Kinase Low Volume Assay
as §1, with “pH7.4,” for “pH 7.4,”
Biotinylated-GST-ATF2 (residues 19-96, 400 nM final), ATP (125 μM final) and MgCl2 (5 mM final) in assay buffer (40 mM HEPES pH 7.4, 1 mM DTT) were added to wells containing 0.1 μl of various concentrations of compound or DMSO vehicle (1.7% final) in Greiner low volume 384 well black plate. The reaction was initiated by the addition of MKK6-activated p38α (100 pM final) to give a total volume of 6 μl. […] The degree of phosphorylation of GST-ATF2 was measured using a BMG Rubystar plate reader (BMG, UK) as a ratio of specific 665 nm energy transfer signal to reference europium 620 nm signal.
It is noted that there are two assay formats shown above for the Time-resolved fluorescence resonance energy transfer kinase assay. […]

[2] = test system: LPS-stimulated TNFalpha production in human whole blood; experiment: LPS-stimulated cytokine production in human whole blood; type: cell-based; conditions: LPS 50 ng/ml final, 4 hour incubation, read-out: IC50, LPS-stimulated TNF-alpha production in human whole blood
Procedure: LPS-Stimulated Cytokine Production in Human Whole Blood
Assay: Test compound concentrations were prepared at 10× concentrations and LPS prepared at 1 ug/ml (final conc. of 50 ng/ml LPS) and added in 50 uL volumes to 1.5 mL eppendorf tubes. Heparinized human whole blood was obtained from healthy volunteers and was dispensed into eppendorf tubes or multiwell plates containing compounds and LPS in 0.2-0.4 mL volumes and the tubes incubated at 37 C. In some studies, compound was incubated with blood for up to 30 min prior to addition of LPS. Following a 4 hour incubation, the tubes or plates were centrifuged to remove cells and plasma was withdrawn and frozen at −80 C.
Cytokine measurement: IL-Ibeta and/or TNFalpha were quantified using a standardized ELISA, or similar technology.

[3] = test system: influx of neutrophils to the lung in LPS-challenged rats; experiment: Rat LPS neutrophilia model; type: in vivo; conditions: LPS aerosol, intratracheal dosing, in at least one of the range of conditions tested, significance p<0.05
Summary of the method: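 Compound given intratracheally (200 ul suspension or dry powder via microsprayer) to isoflurane-anesthetized rats 15 min–24 h before 15 min LPS aerosol (100 ug/ml). Lavage 4 h post-challenge; neutrophils from differential counts. % inhibition versus no-compound controls at a given concentration and pretreat time.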

[4] = for 97(b) and 115 a broad range over multiple runs, lower end less than 4.6, read-out: pIC50, TR-FRET p38α kinase assay (converted)

T1 sequence (Q16539 whole entry): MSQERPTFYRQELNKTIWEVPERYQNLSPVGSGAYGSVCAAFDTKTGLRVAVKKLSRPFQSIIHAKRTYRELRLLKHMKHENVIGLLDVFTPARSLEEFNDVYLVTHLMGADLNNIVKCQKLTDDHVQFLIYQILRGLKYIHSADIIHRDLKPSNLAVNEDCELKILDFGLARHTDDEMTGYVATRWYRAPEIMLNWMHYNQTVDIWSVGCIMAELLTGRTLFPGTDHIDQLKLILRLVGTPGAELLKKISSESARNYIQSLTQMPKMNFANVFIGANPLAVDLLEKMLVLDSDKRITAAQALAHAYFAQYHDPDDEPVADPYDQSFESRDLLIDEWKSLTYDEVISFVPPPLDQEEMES

Compound | IC50 [1] | IC50 (Recombinant human p38α; [4]) | IC50 (Recombinant human p38α; no IC50 at a concentration of less than 16 uM, read-out: IC50, TR-FRET p38α kinase assay) | IC50 [2] | inhibition of neutrophilia [3]
CCN(CC)CCCNc1nc(-c2ccc(C(=O)O)cc2)c2ccc(=O)n(-c3c(F)cccc3F)c2n1 [Example 188(a), 4-[2-{[3-(diethylamino)propyl]-amino}-8-(2,6-difluorophenyl)-7-oxo-7,8-dihydropyrido[2,3-d]pyrimidin-4-yl]benzoic acid] | > 100 nM | > 15800 nM | ≥ 16000 nM | – | –
Cc1ccc(C(=O)NCCc2ccccc2)cc1-c1nc(NC(CO)CO)nc2c1ccc(=O)n2-c1c(F)cccc1F [Example 93, 3-(8-(2,6-difluorophenyl)-2-{[2-hydroxy-1-(hydroxymethyl)ethyl]amino}-7-oxo-7,8-dihydropyrido[2,3-d]pyrimidin-4-yl)-4-methyl-N-(2-phenylethyl)benzamide trifluoroacetate] | – | – | – | > 1000 nM | –
Cc1ccc(C(=O)O)cc1-c1nc(-n2ccnc2CN)nc2c1ccc(=O)n2-c1c(F)cccc1F [Example 97(b), 3-[2-[2-(aminomethyl)-1H-imidazol-1-yl]-8-(2,6-difluorophenyl)-7-oxo-7,8-dihydropyrido[2,3-d]pyrimidin-4-yl]-4-methylbenzoic acid trifluoroacetate] | – | ≥ 39.8 nM | – | > 1000 nM | –
Cc1ccc(C(=O)Nc2ccc(F)cc2)cc1-c1nc(N(C)CCCN(C)C)nc2c1ccc(=O)n2-c1c(F)cccc1F [Example 115, 3-{8-(2,6-difluorophenyl)-2-[[3-(dimethylamino)propyl](methyl)amino]-7-oxo-7,8-dihydropyrido[2,3-d]pyrimidin-4-yl}-N-(4-fluorophenyl)-4-methylbenzamide] | – | ≥ 39.8 nM | – | – | statistically nonsignificant inhibition
Cc1ccc(C(=O)NC(C)C)cc1-c1nc(N(C)CCN(C)C)nc2c1ccc(=O)n2-c1c(F)cccc1F [Example 100, 3-{8-(2,6-difluorophenyl)-2-[[2-(dimethylamino)ethyl](methyl)amino]-7-oxo-7,8-dihydropyrido[2,3-d]pyrimidin-4-yl}-4-methyl-N-(1-methylethyl)benzamide] | – | – | – | > 1000 nM | –
